From the supplement of paper PMC10307832

Tests used:
Assay in all cases: relative viability (nuclei count vs DMSO), 5 days (fraction); higher = more cells survive
ABC-1 = tested on: ABC-1
How it was run: (§1)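 Lung cancer cell lines in 1536-well plates were dosed by pin tool the day after seeding, either with one drug alone or with a fixed anchor-drug dose plus five library-drug doses (not always all listed) in √10 steps. After 5 days, cells were fixed and their nuclei stained in one step (final 0.05% Triton X-100, 1% formaldehyde, 1 ug/ml Hoechst), then counted on 4× images. Relative viability is the nuclei count in treated wells divided by that in vehicle wells. Values are medians of duplicate plates.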

COR-L23 = tested on: COR-L23
How it was run: as §1

EPLC-272H = tested on: EPLC-272H
How it was run: as §1

HARA = tested on: HARA
How it was run: as §1

HCC-15 = tested on: HCC-15
How it was run: as §1

HCC-78 = tested on: HCC-78
How it was run: as §1

LC-2-ad = tested on: LC-2-ad
How it was run: as §1

LU99A = tested on: LU99A
How it was run: as §1

NCI-H1355 = tested on: NCI-H1355
How it was run: as §1

NCI-H1651 = tested on: NCI-H1651
How it was run: as §1

NCI-H1915 = tested on: NCI-H1915
How it was run: as §1

NCI-H1993 = tested on: NCI-H1993
How it was run: as §1

NCI-H2023 = tested on: NCI-H2023
How it was run: as §1

NCI-H2085 = tested on: NCI-H2085
How it was run: as §1

NCI-H2126 = tested on: NCI-H2126
How it was run: as §1

NCI-H2342 = tested on: NCI-H2342
How it was run: as §1

NCI-H2347 = tested on: NCI-H2347
How it was run: as §1

NCI-H358 = tested on: NCI-H358
How it was run: as §1

NCI-H650 = tested on: NCI-H650
How it was run: as §1

NCI-H838 = tested on: NCI-H838
How it was run: as §1

PC-14 = tested on: PC-14
How it was run: as §1

SW 1573 = tested on: SW 1573
How it was run: as §1

UMC-11 = tested on: UMC-11
How it was run: as §1

In the case of NC(=O)Nc1cc(-c2cccc(F)c2)sc1C(=O)N[C@H]1CCCNC1 [AZD7762] + CC(=O)c1c(C)c2cnc(Nc3ccc(N4CCNCC4)cn3)nc2n(C2CCCC2)c1=O [Palbociclib] (partner 0.5 µM), the relative viability (ABC-1; first compound 0.01 µM) is reported as 0.884, the relative viability (ABC-1; first compound 0.03162 µM) is reported as 0.968 and the relative viability (ABC-1; first compound 0.1 µM) is reported as 0.526. For the same compound, the relative viability (ABC-1; first compound 0.3162 µM) was 0.948, the relative viability (ABC-1; first compound 1 µM) was 0.74 and the relative viability (COR-L23; first compound 0.01 µM) was 0.307. It also gave a relative viability (COR-L23; first compound 0.03162 µM) of 0.332, a relative viability (COR-L23; first compound 0.1 µM) of 0.412 and a relative viability (COR-L23; first compound 0.3162 µM) of 0.261. It also gave a relative viability (COR-L23; first compound 1 µM) of 0.117, a relative viability (EPLC-272H; first compound 0.01 µM) of 0.325 and a relative viability (EPLC-272H; first compound 0.03162 µM) of 0.297. It also gave a relative viability (EPLC-272H; first compound 0.1 µM) of 0.351, a relative viability (EPLC-272H; first compound 0.3162 µM) of 0.307 and a relative viability (EPLC-272H; first compound 1 µM) of 0.362. The relative viability (HARA; first compound 0.01 µM) was 0.308, the relative viability (HARA; first compound 0.03162 µM) was 0.245 and the relative viability (HARA; first compound 0.1 µM) was 0.254. The relative viability (HARA; first compound 0.3162 µM) was 0.31, the relative viability (HARA; first compound 1 µM) was 0.265 and the relative viability (HCC-15; first compound 0.01 µM) was 0.74. It also gave a relative viability (HCC-15; first compound 0.03162 µM) of 0.738, a relative viability (HCC-15; first compound 0.1 µM) of 0.802 and a relative viability (HCC-15; first compound 0.3162 µM) of 0.676. The relative viability (HCC-15; first compound 1 µM) was 0.718, the relative viability (HCC-78; first compound 0.01 µM) was 0.444 and the relative viability (HCC-78; first compound 0.03162 µM) was 0.461. It also gave a relative viability (HCC-78; first compound 0.1 µM) of 0.444, a relative viability (HCC-78; first compound 0.3162 µM) of 0.518 and a relative viability (HCC-78; first compound 1 µM) of 0.454. For the same compound, the relative viability (LC-2-ad; first compound 0.01 µM) was 0.499, the relative viability (LC-2-ad; first compound 0.03162 µM) was 0.521 and the relative viability (LC-2-ad; first compound 0.1 µM) was 0.463. It also gave a relative viability (LC-2-ad; first compound 0.3162 µM) of 0.365, a relative viability (LC-2-ad; first compound 1 µM) of 0.367 and a relative viability (LU99A; first compound 0.01 µM) of 0.469. For the same compound, the relative viability (LU99A; first compound 0.03162 µM) was 0.427, the relative viability (LU99A; first compound 0.1 µM) was 0.438 and the relative viability (LU99A; first compound 0.3162 µM) was 0.408. The relative viability (LU99A; first compound 1 µM) was 0.354, the relative viability (NCI-H1355; first compound 0.01 µM) was 0.415 and the relative viability (NCI-H1355; first compound 0.03162 µM) was 0.389. It also gave a relative viability (NCI-H1355; first compound 0.1 µM) of 0.389, a relative viability (NCI-H1355; first compound 0.3162 µM) of 0.418 and a relative viability (NCI-H1355; first compound 1 µM) of 0.39. For the same compound, the relative viability (NCI-H1651; first compound 0.01 µM) was 0.574, the relative viability (NCI-H1651; first compound 0.03162 µM) was 0.525 and the relative viability (NCI-H1651; first compound 0.1 µM) was 0.556. For the same compound, the relative viability (NCI-H1651; first compound 0.3162 µM) was 0.558, the relative viability (NCI-H1651; first compound 1 µM) was 0.501 and the relative viability (NCI-H1915; first compound 0.01 µM) was 0.552. The relative viability (NCI-H1915; first compound 0.03162 µM) was 0.608, the relative viability (NCI-H1915; first compound 0.1 µM) was 0.606 and the relative viability (NCI-H1915; first compound 0.3162 µM) was 0.617. For the same compound, the relative viability (NCI-H1915; first compound 1 µM) was 0.563, the relative viability (NCI-H1993; first compound 0.01 µM) was 0.84 and the relative viability (NCI-H1993; first compound 0.03162 µM) was 0.648. For the same compound, the relative viability (NCI-H1993; first compound 0.1 µM) was 0.709, the relative viability (NCI-H1993; first compound 0.3162 µM) was 0.589 and the relative viability (NCI-H1993; first compound 1 µM) was 0.652. The relative viability (NCI-H2023; first compound 0.01 µM) was 0.402, the relative viability (NCI-H2023; first compound 0.03162 µM) was 0.377 and the relative viability (NCI-H2023; first compound 0.1 µM) was 0.219. For the same compound, the relative viability (NCI-H2023; first compound 0.3162 µM) was 0.162, the relative viability (NCI-H2023; first compound 1 µM) was 0.095 and the relative viability (NCI-H2085; first compound 0.01 µM) was 0.478. For the same compound, the relative viability (NCI-H2085; first compound 0.03162 µM) was 0.458, the relative viability (NCI-H2085; first compound 0.1 µM) was 0.494 and the relative viability (NCI-H2085; first compound 0.3162 µM) was 0.483. For the same compound, the relative viability (NCI-H2085; first compound 1 µM) was 0.544, the relative viability (NCI-H2126; first compound 0.01 µM) was 0.353 and the relative viability (NCI-H2126; first compound 0.03162 µM) was 0.363. For the same compound, the relative viability (NCI-H2126; first compound 0.1 µM) was 0.346, the relative viability (NCI-H2126; first compound 0.3162 µM) was 0.369 and the relative viability (NCI-H2126; first compound 1 µM) was 0.397. It also gave a relative viability (NCI-H2342; first compound 0.01 µM) of 0.492, a relative viability (NCI-H2342; first compound 0.03162 µM) of 0.513 and a relative viability (NCI-H2342; first compound 0.1 µM) of 0.447. It also gave a relative viability (NCI-H2342; first compound 0.3162 µM) of 0.483, a relative viability (NCI-H2342; first compound 1 µM) of 0.505 and a relative viability (NCI-H2347; first compound 0.01 µM) of 0.542. For the same compound, the relative viability (NCI-H2347; first compound 0.03162 µM) was 0.469, the relative viability (NCI-H2347; first compound 0.1 µM) was 0.479 and the relative viability (NCI-H2347; first compound 0.3162 µM) was 0.509. The relative viability (NCI-H2347; first compound 1 µM) was 0.461, the relative viability (NCI-H358; first compound 0.01 µM) was 0.182 and the relative viability (NCI-H358; first compound 0.03162 µM) was 0.141. It also gave a relative viability (NCI-H358; first compound 0.1 µM) of 0.111, a relative viability (NCI-H358; first compound 0.3162 µM) of 0.105 and a relative viability (NCI-H358; first compound 1 µM) of 0.0964. It also gave a relative viability (NCI-H650; first compound 0.01 µM) of 0.377, a relative viability (NCI-H650; first compound 0.03162 µM) of 0.374 and a relative viability (NCI-H650; first compound 0.1 µM) of 0.403. For the same compound, the relative viability (NCI-H650; first compound 0.3162 µM) was 0.38, the relative viability (NCI-H650; first compound 1 µM) was 0.382 and the relative viability (NCI-H838; first compound 0.01 µM) was 0.27. The relative viability (NCI-H838; first compound 0.03162 µM) was 0.198, the relative viability (NCI-H838; first compound 0.1 µM) was 0.243 and the relative viability (NCI-H838; first compound 0.3162 µM) was 0.221. It also gave a relative viability (NCI-H838; first compound 1 µM) of 0.221, a relative viability (PC-14; first compound 0.01 µM) of 0.601 and a relative viability (PC-14; first compound 0.03162 µM) of 0.469. It also gave a relative viability (PC-14; first compound 0.1 µM) of 0.326, a relative viability (PC-14; first compound 0.3162 µM) of 0.203 and a relative viability (PC-14; first compound 1 µM) of 0.0753. For the same compound, the relative viability (SW 1573; first compound 0.01 µM) was 0.424, the relative viability (SW 1573; first compound 0.03162 µM) was 0.453 and the relative viability (SW 1573; first compound 0.1 µM) was 0.466. It also gave a relative viability (SW 1573; first compound 0.3162 µM) of 0.377, a relative viability (SW 1573; first compound 1 µM) of 0.314 and a relative viability (UMC-11; first compound 0.01 µM) of 0.373. The relative viability (UMC-11; first compound 0.03162 µM) was 0.302, the relative viability (UMC-11; first compound 0.1 µM) was 0.34 and the relative viability (UMC-11; first compound 0.3162 µM) was 0.301. For the same compound, the relative viability (UMC-11; first compound 1 µM) was 0.231.
